Reference: PubChem BioAssay AID248 (DTP/NCI, 2004)
“And” between values parts separate entries of the source, which are not always exact repeats. Equal entries are not always repeated. Toxic doses and inconclusive results are not listed. Rule as the data show it: active = T/C of 150% or more; inactive = T/C below 125%.

Tested on: L1210 leukemia ip in BDF1 mice, survival T/C
Assay: NCI In Vivo Anticancer Drug Screen. Data for tumor model L1210 Leukemia (intraperitoneal) in B6D2F1 (BDF1) mice
Conditions: endpoint: mean survival time, higher = longer survival
Method in brief: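 Antitumor effect is assessed in tumor-bearing animals. Survival in the compound arm is compared with a vehicle-dosed control arm and expressed as their quotient.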

[1] = dose: 100.0 mg/kg/injection, schedule: Q01DX009 (ip), vehicle: saline
[2] = dose: 200.0 mg/kg/injection, schedule: Q01DX009 (ip), vehicle: saline
[3] = dose: 400.0 mg/kg/injection, schedule: Q01DX009 (ip), vehicle: saline
[4] = dose: 100.0 mg/kg/injection, schedule: Q01DX009 (ip), vehicle: Klucel (hydroxypropylcellulose) (HPC)
[5] = dose: 100.0 mg/kg/injection, schedule: Q04DX003 (ip), vehicle: Klucel (hydroxypropylcellulose) (HPC)
[6] = dose: 200.0 mg/kg/injection, schedule: Q01DX009 (ip), vehicle: Klucel (hydroxypropylcellulose) (HPC)
[7] = dose: 200.0 mg/kg/injection, schedule: Q04DX003 (ip), vehicle: Klucel (hydroxypropylcellulose) (HPC)
[8] = dose: 400.0 mg/kg/injection, schedule: Q04DX003 (ip), vehicle: Klucel (hydroxypropylcellulose) (HPC)
[9] = dose: 50.0 mg/kg/injection, schedule: Q01DX009 (ip), vehicle: saline
[10] = dose: 100.0 mg/kg/injection, schedule: Q01DX001 (ip), vehicle: saline
[11] = dose: 100.0 mg/kg/injection, schedule: Q04DX003 (ip), vehicle: saline
[12] = dose: 200.0 mg/kg/injection, schedule: Q01DX001 (ip), vehicle: saline
[13] = dose: 400.0 mg/kg/injection, schedule: Q01DX001 (ip), vehicle: saline

Measured: T/C

CC1(C(=O)O)NCCS1 (stereo not given)
inactive: dose: 100.0 mg/kg/injection, schedule: Q01DX001 (ip), vehicle: carboxymethylcellulose (CMC) 95 % of control | dose: 200.0 mg/kg/injection, schedule: Q01DX001 (ip), vehicle: carboxymethylcellulose (CMC) 90 % of control | dose: 400.0 mg/kg/injection, schedule: Q01DX001 (ip), vehicle: carboxymethylcellulose (CMC) 90 % of control

Cc1ccc(S(=O)(=O)N2CCc3ccccc3C(=O)C2Br)cc1 (stereo not given)
inactive: [1] 97 % of control | [2] 94 % of control | [3] 86 % of control

COC(=O)C(=O)CC(=O)c1cccc(Cl)c1
inactive: dose: 10.0 mg/kg/injection, schedule: Q04DX002 (ip), vehicle: Klucel (hydroxypropylcellulose) (HPC) 92 % of control | dose: 20.0 mg/kg/injection, schedule: Q04DX002 (ip), vehicle: Klucel (hydroxypropylcellulose) (HPC) 96 % of control | dose: 40.0 mg/kg/injection, schedule: Q04DX002 (ip), vehicle: Klucel (hydroxypropylcellulose) (HPC) 105 % of control

Sc1ccccc1
inactive: dose: 100.0 mg/kg/injection, schedule: Q04DX003 (ip), vehicle: saline with Tween-80 92 % of control | dose: 200.0 mg/kg/injection, schedule: Q04DX003 (ip), vehicle: saline with Tween-80 99 % of control | dose: 400.0 mg/kg/injection, schedule: Q04DX003 (ip), vehicle: saline with Tween-80 94 % of control

CCCCNC(=O)Nc1c(C)cccc1Cl
inactive: [4] 101 % of control | [5] 101 % of control | [6] 90 % of control | [7] 97 % of control | dose: 400.0 mg/kg/injection, schedule: Q01DX009 (ip), vehicle: Klucel (hydroxypropylcellulose) (HPC) 87 % of control | [8] 88 % of control

O=C1C=CC(=O)O1 (tested in a mixture with another compound)
inactive: dose: 0.22 mg/kg/injection, schedule: Q01DX009 (ip), vehicle: acetone 96 % of control | dose: 0.44 mg/kg/injection, schedule: Q01DX009 (ip), vehicle: acetone 105 % of control | dose: 0.78 mg/kg/injection, schedule: Q04DX003 (ip), vehicle: other 93 % of control | dose: 0.88 mg/kg/injection, schedule: Q01DX009 (ip), vehicle: acetone 92 % of control | dose: 1.56 mg/kg/injection, schedule: Q04DX003 (ip), vehicle: other 96 % of control | dose: 3.12 mg/kg/injection, schedule: Q04DX003 (ip), vehicle: other 104 % of control | dose: 4.6 mg/kg/injection, schedule: Q04DX003 (ip), vehicle: Klucel (hydroxypropylcellulose) (HPC) 96 % of control | dose: 7.1 mg/kg/injection, schedule: Q04DX003 (ip), vehicle: Klucel (hydroxypropylcellulose) (HPC) 96 % of control | dose: 15.0 mg/kg/injection, schedule: Q01DX001 (ip), vehicle: carboxymethylcellulose (CMC) 112 % of control | dose: 22.0 mg/kg/injection, schedule: Q01DX015 (ip), vehicle: carboxymethylcellulose (CMC) 101 % of control and 119 % of control | dose: 30.0 mg/kg/injection, schedule: Q01DX001 (ip), vehicle: carboxymethylcellulose (CMC) 116 % of control | dose: 31.25 mg/kg/injection, schedule: Q#A X Z (ip), vehicle: carboxymethylcellulose (CMC) 96 % of control and 93 % of control and 108 % of control | dose: 33.0 mg/kg/injection, schedule: Q01DX015 (ip), vehicle: carboxymethylcellulose (CMC) 101 % of control and 103 % of control | [9] 107 % of control [middle of 5 runs] | dose: 50.0 mg/kg/injection, schedule: Q01DX015 (ip), vehicle: carboxymethylcellulose (CMC) 108 % of control | dose: 62.5 mg/kg/injection, schedule: Q#A X Z (ip), vehicle: carboxymethylcellulose (CMC) 96 % of control and 95 % of control and 106 % of control | dose: 75.0 mg/kg/injection, schedule: Q01DX001 (ip), vehicle: carboxymethylcellulose (CMC) 119 % of control | dose: 75.0 mg/kg/injection, schedule: Q01DX001 (ip), vehicle: water 104 % of control | dose: 75.0 mg/kg/injection, schedule: Q01DX015 (ip), vehicle: carboxymethylcellulose (CMC) 98 % of control | [10] 115 % of control | [1] 112 % of control [middle of 7 runs] | [11] 107 % of control and 112 % of control and 109 % of control | dose: 125.0 mg/kg/injection, schedule: Q#A X Z (ip), vehicle: carboxymethylcellulose (CMC) 86 % of control and 102 % of control and 106 % of control | dose: 125.0 mg/kg/injection, schedule: Q#A X Z (oral), vehicle: carboxymethylcellulose (CMC) 106 % of control and 100 % of control | dose: 150.0 mg/kg/injection, schedule: Q01DX001 (ip), vehicle: water 106 % of control | dose: 177.0 mg/kg/injection, schedule: Q01DX001 (ip), vehicle: saline 98 % of control | [12] 107 % of control | dose: 200.0 mg/kg/injection, schedule: Q04DX003 (ip), vehicle: saline 106 % of control [middle of 4 runs] | dose: 250.0 mg/kg/injection, schedule: Q#A X Z (ip), vehicle: carboxymethylcellulose (CMC) 86 % of control and 108 % of control and 90 % of control | dose: 250.0 mg/kg/injection, schedule: Q#A X Z (oral), vehicle: carboxymethylcellulose (CMC) 106 % of control and 100 % of control and 103 % of control | dose: 270.0 mg/kg/injection, schedule: Q01DX001 (ip), vehicle: saline 105 % of control | dose: 300.0 mg/kg/injection, schedule: Q01DX001 (ip), vehicle: water 97 % of control | [13] 112 % of control and 100 % of control | [3] 113 % of control | dose: 500.0 mg/kg/injection, schedule: Q#A X Z (oral), vehicle: carboxymethylcellulose (CMC) 100 % of control and 102 % of control | dose: 600.0 mg/kg/injection, schedule: Q01DX001 (ip), vehicle: saline 94 % of control | dose: 1000.0 mg/kg/injection, schedule: Q#A X Z (oral), vehicle: carboxymethylcellulose (CMC) 100 % of control and 106 % of control and 102 % of control

CC(=O)NC(CC(=O)O)C(=O)O (stereo not given)
inactive: dose: 50.0 mg/kg/injection, schedule: Q01DX009 (ip), vehicle: Klucel (hydroxypropylcellulose) (HPC) 97 % of control | dose: 50.0 mg/kg/injection, schedule: Q04DX002 (ip), vehicle: saline 107 % of control | [4] 105 % of control | [1] 107 % of control | dose: 100.0 mg/kg/injection, schedule: Q04DX002 (ip), vehicle: saline 107 % of control | [5] 90 % of control | [6] 101 % of control | [2] 113 % of control | dose: 200.0 mg/kg/injection, schedule: Q04DX002 (ip), vehicle: saline 98 % of control | [7] 87 % of control | [3] 102 % of control | [8] 97 % of control

O=C(Oc1ccc(S(=O)(=O)F)cc1F)c1ccccc1Cl
inactive: dose: 100.0 mg/kg/injection, schedule: Q04DX002 (ip), vehicle: Klucel (hydroxypropylcellulose) (HPC) 95 % of control | dose: 200.0 mg/kg/injection, schedule: Q04DX002 (ip), vehicle: Klucel (hydroxypropylcellulose) (HPC) 89 % of control

Oc1c(Br)cc(C(c2cc(Br)c(O)c(Br)c2)c2ccccn2)cc1Br
inactive: [5] 104 % of control | [7] 100 % of control | [8] 104 % of control

Cc1cccnc1N1CCNC1=O
inactive: dose: 25.0 mg/kg/injection, schedule: Q04DX003 (ip), vehicle: saline 92 % of control | dose: 50.0 mg/kg/injection, schedule: Q04DX003 (ip), vehicle: saline 103 % of control | [11] 96 % of control and 117 % of control

COc1ccc(OC)c(/C=C/c2cccn[n+]2C)c1
inactive: dose: 50.0 mg/kg/injection, schedule: Q01DX009 (ip), vehicle: saline with Tween-80 101 % of control | dose: 100.0 mg/kg/injection, schedule: Q01DX009 (ip), vehicle: saline with Tween-80 114 % of control

CC(=O)SC1CC(=O)OC1=O (stereo not given)
inactive: [9] 96 % of control | [10] 96 % of control | [1] 102 % of control | [12] 104 % of control | [13] 98 % of control

CC(C)C(C(=O)O)N(C)C(=O)c1cnc2ccccc2n1 (stereo not given)
inactive: [10] 105 % of control | [12] 109 % of control | [13] 103 % of control
